Experimental data as given in patent US8802655B2, “4-hydroxybenzomorphans” (Rensselaer Polytechnic Institute, priority 2004, dated 2014).
Where two headings read alike, the source gives them in different places.

Key:
Assay type in all cases: binding
δ opioid receptor [1] = molecular target: T1, δ opioid receptor (UniProt A0A286XTF2); set-up: unit μM; details: radioligand [3H]Naltrindole
Method: (§1) The affinities of the compounds of the invention are determined by the method described in Wentland et al. [BioOrg.

κ opioid receptor = molecular target: T2, κ opioid receptor (UniProt P41144)
T2 construct: rows headed: Ki (nM ± S.E.) [^3H]U69,593 (κ); other: radioligand [3H]U69,593
Method: as §1

δ opioid receptor [2] = molecular target: T1, δ opioid receptor; details: read-out: Ki (nM ± S.E.) [^3H]Naltrindole (δ); radioligand [3H]Naltrindole
Method: as §1

μ opioid receptor = μ opioid receptor (Homo sapiens, UniProt P35372); details: read-out: Ki (nM ± S.E.) [^3H]DAMGO (μ)
μ opioid receptor, sequence (P35372 whole entry): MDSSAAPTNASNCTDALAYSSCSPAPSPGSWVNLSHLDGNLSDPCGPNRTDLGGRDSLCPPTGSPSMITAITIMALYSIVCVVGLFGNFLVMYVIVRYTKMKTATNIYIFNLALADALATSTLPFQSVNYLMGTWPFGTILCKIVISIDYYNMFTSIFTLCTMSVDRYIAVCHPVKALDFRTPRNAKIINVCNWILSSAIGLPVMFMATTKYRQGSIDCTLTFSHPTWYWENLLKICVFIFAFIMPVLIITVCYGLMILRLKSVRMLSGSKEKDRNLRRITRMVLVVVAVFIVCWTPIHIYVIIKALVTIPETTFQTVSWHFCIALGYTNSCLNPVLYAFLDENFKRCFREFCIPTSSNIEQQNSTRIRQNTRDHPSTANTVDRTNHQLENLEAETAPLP
Method: as §1

[3] = read-out: Ki (nM ± S.E.) [^3H]U69,593 (κ); radioligand [3H]U69,593
[4] = read-out: Ki (nM ± S.E.) [^3H]Naltrindole (δ)
[5] = radioligand [3H]U69,593; read-out: Ki (nM ± S.E.) [^3H]U69,593 (κ)

SMILES | Ki (δ opioid receptor [1]; read-out: Ki [^3H]Naltrindole (δ), unit μM) [µM] | Ki (κ opioid receptor; [3]) [nM] | Ki (δ opioid receptor [2]) [nM] | Ki (δ opioid receptor [1]; [4]) [µM] | Ki (μ opioid receptor) [nM] | Ki (κ opioid receptor; [5]) [nM]
COc1ccc2c(c1O)[C@]13CCN(CC4CC4)[C@H](C2)[C@]1(O)CCC(=O)C3 [Sample 4, 3-methoxy-4-hydroxy-naltrexone] | > 10 | 12 ± 0.29 |  |  |  | 
NC(=O)c1ccc2c(c1O)[C@]13CCN(CC4CCC4)[C@H](C2)[C@]1(O)CCC(=O)C3 [Sample 21, 3-Carboxamido-4-hydroxy-6-oxo-nalbuphine] |  | 0.27 ± 0.013 | 4.2 ± 0.36 |  |  | 
COc1ccc2c(c1O)[C@]13CCN(C)[C@H](C2)[C@@H]1CCC(=O)C3 [Sample 8, 3-Methoxy-4-hydroxy-6-oxo-7,8-dihydro-morphine] |  | 350 ± 8.5 |  | 1.2 ± 0.065 |  | 
COc1ccc2c(c1O)[C@]13CCN(C)[C@H](C2)[C@@H]1C=CC(=O)C3 [Sample 7, 3-Methoxy-4-hydroxy-6-oxo-morphine] |  | 740 ± 25 |  | 2 ± 0.08 |  | 
NC(=O)c1ccc2c3c1O[C@H]1C(=O)CC[C@@]4(O)[C@@H](C2)N(CC2CC2)CC[C@]314 [Sample 2, 3-Carboxyamido-naltrexone] |  |  |  | 0.11 ± 0.0081 | 1.9 ± 0.21 | 22 ± 0.85
NC(=S)c1ccc2c(c1O)[C@]13CCN(CC4CC4)[C@H](C2)[C@]1(O)CCC(=O)C3 [Sample 26, 3-Thiocarboxyamido-4-hydroxy-naltrexone] |  | 5 ± 0.72 |  | 0.14 ± 0.011 |  | 
NC(=O)c1ccc2c(c1O)[C@]13CCN(CC4CC4)[C@H](C2)[C@]1(O)CCC(=O)C3 [Sample 3, 3-Carboxyamido-4-hydroxy-naltrexone] |  |  |  | 0.0026 ± 0.00026 | 0.052 ± 0.004 | 0.23 ± 0.018
